Measured values reported in ChEMBL document CHEMBL3046879, “Synthesis, antimicrobial evaluation, and QSAR analysis of 2-isopropyl-5-methylcyclohexanol derivatives” (Med Chem Res, 2012).

Assays:
[1] = Octanol-water partition coefficient, log P of the compound; format: physicochemical
Aspergillus niger = experiment: Antimicrobial activity against Aspergillus niger MTCC 2425 after 7 days by serial dilution method; format: functional
Candida albicans = experiment: Antimicrobial activity against Candida albicans MTCC 227 after 2 days by serial dilution method; format: functional
Escherichia coli = experiment: Antimicrobial activity against Escherichia coli MTCC 739 after 24 hr by serial dilution method; format: functional
Bacillus subtilis = experiment: Antimicrobial activity against Bacillus subtilis MTCC 2423 after 24 hr by serial dilution method; format: functional
Staphylococcus aureus = experiment: Antimicrobial activity against Staphylococcus aureus MTCC 1430 after 24 hr by serial dilution method; format: functional

| Structure (SMILES) | logP [1] | -logMIC (Aspergillus niger) | -logMIC (Candida albicans) | -logMIC (Escherichia coli) | -logMIC (Bacillus subtilis) | -logMIC (Staphylococcus aureus) |
| --- | --- | --- | --- | --- | --- | --- |
| COc1ccccc1C(=O)O[C@@H]1C[C@H](C)CC[C@H]1C(C)C | 4.57 | 2.07 | 1.97 | 1.97 | 1.98 | 2.06 |
| CC(Cl)C(=O)O[C@@H]1C[C@H](C)CC[C@H]1C(C)C (stereo partly specified) | 4.04 | 1.9 | 1.9 | 1.9 | 1.9 | 1.6 |
| CC(C)[C@@H]1CC[C@@H](C)C[C@H]1OC(=O)CCl | 3.5 | 2.17 | 1.87 | 1.79 | 1.86 | 2 |
| CCC(=O)O[C@@H]1C[C@H](C)CC[C@H]1C(C)C | 3.54 | 2.13 | 1.83 | 1.75 | 1.88 | 1.75 |
| CC(=O)O[C@@H]1C[C@H](C)CC[C@H]1C(C)C | 2.91 | 1.98 | 1.8 | 1.5 | 1.8 | 1.5 |
| CC(C)[C@@H]1CC[C@@H](C)C[C@H]1OC(=O)/C=C/c1ccc([N+](=O)[O-])cc1 | 5.18 | 2.18 | 2.33 | 2.33 | 2.33 | 2.03 |
| CC(C)[C@@H]1CC[C@@H](C)C[C@H]1OC(=O)/C=C/c1cccc([N+](=O)[O-])c1 | 5.18 | 2.33 | 2.33 | 2.14 | 2.03 | 2.33 |
| CC(C)[C@@H]1CC[C@@H](C)C[C@H]1OC(=O)/C=C/c1ccccc1[N+](=O)[O-] | 5.18 | 2.33 | 2.33 | 2.33 | 2.03 | 2.33 |
| CC(C)[C@@H]1CC[C@@H](C)C[C@H]1OC(=O)/C=C/c1ccccc1 | 5.23 | 2.01 | 1.96 | 1.96 | 2.26 | 1.96 |
| Cc1cccc(C(=O)O[C@@H]2C[C@H](C)CC[C@H]2C(C)C)c1 | 5.29 | 2.03 | 1.94 | 1.93 | 2.02 | 2.05 |
| Cc1ccc(C(=O)O[C@@H]2C[C@H](C)CC[C@H]2C(C)C)cc1 | 5.29 | 2.04 | 1.94 | 1.9 | 2.1 | 1.85 |
| Cc1ccccc1C(=O)O[C@@H]1C[C@H](C)CC[C@H]1C(C)C | 5.29 | 1.94 | 1.64 | 2.01 | 1.94 | 1.94 |
| COc1ccc(C(=O)O[C@@H]2C[C@H](C)CC[C@H]2C(C)C)cc1 | 4.57 | 2.04 | 1.67 | 1.98 | 2.01 | 2.01 |
| COc1cccc(C(=O)O[C@@H]2C[C@H](C)CC[C@H]2C(C)C)c1 | 4.57 | 2.11 | 1.97 | 1.97 | 1.99 | 1.97 |
| CC(C)[C@@H]1CC[C@@H](C)C[C@H]1OC(=O)c1ccc([N+](=O)[O-])cc1[N+](=O)[O-] | 4.73 | 2.05 | 2.05 | 2.35 | 2.05 | 2.35 |
| CC(C)[C@@H]1CC[C@@H](C)C[C@H]1OC(=O)c1ccc([N+](=O)[O-])cc1 | 4.78 | 2.18 | 2.29 | 1.99 | 2.02 | 2.29 |
| CC(C)[C@@H]1CC[C@@H](C)C[C@H]1OC(=O)c1cccc([N+](=O)[O-])c1 | 4.78 | 2.29 | 2.33 | 2.29 | 1.99 | 2.29 |
| CC(C)[C@@H]1CC[C@@H](C)C[C@H]1OC(=O)c1ccc(Cl)cc1Cl | 5.86 | 1.95 | 1.72 | 2.02 | 1.96 | 2.02 |
| CC(C)[C@@H]1CC[C@@H](C)C[C@H]1OC(=O)c1ccccc1[N+](=O)[O-] | 4.78 | 2.17 | 2.29 | 2.29 | 2.03 | 1.99 |
| CC(C)[C@@H]1CC[C@@H](C)C[C@H]1OC(=O)c1ccc(Cl)cc1 | 5.34 | 2.05 | 1.67 | 1.67 | 1.97 | 1.88 |
| CC(C)[C@@H]1CC[C@@H](C)C[C@H]1OC(=O)c1cccc(Cl)c1 | 5.34 | 1.97 | 1.97 | 1.88 | 1.97 | 1.97 |
| CC(C)[C@@H]1CC[C@@H](C)C[C@H]1OC(=O)c1ccc(Br)cc1 | 5.61 | 2.04 | 1.85 | 2.02 | 2.04 | 1.98 |
| CC(C)[C@@H]1CC[C@@H](C)C[C@H]1OC(=O)c1ccccc1Cl | 5.34 | 2.1 | 1.97 | 2.1 | 1.91 | 1.97 |
| CC(C)[C@@H]1CC[C@@H](C)C[C@H]1OC(=O)c1cccc(Br)c1 | 5.61 | 2.04 | 2.04 | 1.88 | 1.96 | 1.96 |
| CC(C)[C@@H]1CC[C@@H](C)C[C@H]1OC(=O)c1ccccc1Br | 5.61 | 2.04 | 2.04 | 1.98 | 2.04 | 2.04 |
| OC(Cn1cncn1)(Cn1cncn1)c1ccc(F)cc1F [FLUCONAZOLE] |  | 2.64 | 2.64 |  |  |  |
| CC(C)[C@@H]1CC[C@@H](C)C[C@H]1OC(=O)c1ccccc1 [MENTHYL BENZOATE] | 4.82 | 1.92 | 1.92 | 2.01 | 2.01 | 1.92 |
| CCn1cc(C(=O)O)c(=O)c2cc(F)c(N3CCNCC3)cc21 [NORFLOXACIN] |  |  |  | 2.61 | 2.61 | 2.61 |
